The subject of this test is TNF-α. The test is described as follows: Cytokine ELISA in CIA mice, day 60: TNF-α. It counts as in vivo. From the text:
With continued reference to FIG. 1, in some embodiments, administration 116 may be done to an animal. As a non-limiting example, the animal may include a mouse, a fish, a rabbit, human, and the like. As a non-limiting example, administration 116 of composition of the engineered virus-based nanoparticle for a treatment of an autoimmune condition may be done to dilute, brown, and non-agouti (DBA) mice based on their susceptibility to collagen-induced arthritis (CIA). Female DBA/1 mice 6 to 8 weeks of age may be maintained under specific pathogen-free conditions. CIA may be induced by the intradermal tail base injection of 100 μg of chicken type II collagen (Sigma-Aldrich) as previously described. Five mice per group may be immunized on days 0 and 21 to induce arthritis. The onset of disease may be confirmed on the day that swelling or erythema may be observed in any paw, typically 4 to 10 days after the second immunization. […] CIA may be assessed using a macroscopic score system based on the visual identification of arthritic limbs. The clinical severity of arthritis may be evaluated as follows: Each mouse may be inspected every 2 to 3 days for three different parameters: (i) swelling of the hind ankle and foot, measured with calipers; (ii) erythema of each leg; and (iii) swelling of the fingers. The RA index for each mouse was expressed as the mean of the three scores from the individual parameters. At the end of the experiment (60 days), we determined the proportion of CD25+Foxp3+ cells in the lymph nodes and measured cytokine titers in the lymph nodes, joints, and serum.
With continued reference to FIG. 1, in some embodiments, processor 104 may determine critical administration 124 as a function of a cytokine profile and a proportion of CD25^+ Foxp3^+ cells. […] In some embodiments, to quantify cytokines in DBA mice, joint tissues may be pulverized and resuspended in 1 ml of lysis medium per 100-mg joint weight for 60 min at 37′C, followed by centrifugation to remove debris. […]

For the compound `C[C@@H]1C[C@H]2[C@@H]3CCC4=CC(=O)C=C[C@]4(C)[C@@]3(F)[C@@H](O)C[C@]2(C)[C@@]1(O)C(=O)CO` [Dexamethasone, dexamethasone], the “TNF-α J” value (joint supernatant, CIA mice, day 60, mean n=3) came to 49.20 pg/mL. The “TNF-α LN” value (lymph node supernatant, CIA mice, day 60, mean n=3) was 107.90 pg/mL. Besides, for the setting “serum pooled from five CIA mice, day 60”, the “TNF-α S” value was determined as 24.2 pg/mL.

These data come from patent publication US12527849B2, “Apparatus for determining administration form of a composition of an engineered virus-based nanoparticle for a treatment of an autoimmune condition” (Diamante Srl, priority 2021, dated 2026).
